US12527808B2, “Compounds useful to treat pain” (Amneal Pharmaceuticals LLC, priority 2019, dated 2026)

What was measured:
Bradykinin B1 Receptor = target: T1, Bradykinin B1 Receptor (Homo sapiens, UniProt P46663); assay: Radioligand binding assay for bradykinin B1 receptor
T1 construct: purchased; host or cells: transiently transfected CHO-K1 cells (membranes)
T1 sequence (P46663 1-353): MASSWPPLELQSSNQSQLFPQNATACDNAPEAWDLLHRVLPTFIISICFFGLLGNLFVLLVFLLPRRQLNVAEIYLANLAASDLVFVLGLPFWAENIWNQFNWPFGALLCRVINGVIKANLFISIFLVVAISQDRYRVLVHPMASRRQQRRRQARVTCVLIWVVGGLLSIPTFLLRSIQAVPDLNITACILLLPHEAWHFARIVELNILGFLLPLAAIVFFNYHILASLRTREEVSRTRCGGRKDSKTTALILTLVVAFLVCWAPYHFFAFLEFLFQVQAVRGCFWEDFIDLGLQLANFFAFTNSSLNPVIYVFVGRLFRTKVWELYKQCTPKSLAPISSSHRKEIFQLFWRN
Procedure: (§1) Example 10: Radioligand Binding Assay for Bradykinin B1 and B2 Receptor
(§2) Bradykinin receptor membrane (B1 & B2) was procured from commercial source. Competitive radioligand binding assay was done by filtration-based technique using membranes prepared from transiently transfected Chinese hamster ovary (CHO)—K1 cells. Briefly, different concentrations of Phenazopyridine (compound I-A) was added to 96 wells plate containing bradykinin membrane along with required controls. The assay plate was harvested onto a GF/B Unifier harvester plate and washed with cold wash buffer. Plate was dried in oven for 15 mins at 60° C. The membrane activity was analyzed based on the readout using MicroBeta from Perkin Elmer in Counts Per Minute (CPM). Percent inhibition of Bradykinin receptor activity was calculated at each concentration and summarized in the results.

Bradykinin B2 Receptor = target: T2, Bradykinin B2 Receptor (Homo sapiens, UniProt P30411); assay: Radioligand binding assay for bradykinin B2 receptor
T2 construct: purchased; host or cells: transiently transfected CHO-K1 cells (membranes)
T2 sequence (P30411 1-391): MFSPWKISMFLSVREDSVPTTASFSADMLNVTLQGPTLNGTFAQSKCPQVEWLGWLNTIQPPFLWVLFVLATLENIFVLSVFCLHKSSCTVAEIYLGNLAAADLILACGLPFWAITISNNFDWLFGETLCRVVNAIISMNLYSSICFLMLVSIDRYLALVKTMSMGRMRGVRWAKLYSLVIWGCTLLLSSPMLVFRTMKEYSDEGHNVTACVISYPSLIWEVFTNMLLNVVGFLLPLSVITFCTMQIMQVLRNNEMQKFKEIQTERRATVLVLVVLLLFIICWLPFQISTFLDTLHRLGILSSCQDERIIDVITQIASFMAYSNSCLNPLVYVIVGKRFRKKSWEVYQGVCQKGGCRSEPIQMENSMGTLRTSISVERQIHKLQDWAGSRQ
Procedure: as §1, §2

- inhibition at 1 µM (Bradykinin B1 Receptor; 1.00 μM): 12%
- inhibition at 10.01 µM (Bradykinin B1 Receptor; 10.01 μM): 49%
- inhibition at 100 µM (Bradykinin B1 Receptor; 100.00 μM): 81%
- inhibition at 0.03 µM (Bradykinin B2 Receptor; 0.03 μM): 6%
- inhibition at 0.1 µM (Bradykinin B2 Receptor; 0.10 μM): 13%
- inhibition at 0.32 µM (Bradykinin B2 Receptor; 0.32 μM): 10%
- inhibition at 1 µM (Bradykinin B2 Receptor; 1.00 μM): 37%
- inhibition at 3.17 µM (Bradykinin B2 Receptor; 3.17 μM): 38%
- inhibition at 10.01 µM (Bradykinin B2 Receptor; 10.01 μM): 59%
- inhibition at 31.65 µM (Bradykinin B2 Receptor; 31.65 μM): 78%
- inhibition at 100 µM (Bradykinin B2 Receptor; 100.00 μM): 98%
Compound: Nc1ccc(/N=N/c2ccccc2)c(N)n1 [Phenazopyridine]
